System: B16 melanoma
Test: Treating melanoma-bearing mice with drug-loaded crosslinked nanoparticles
Type: in vivo, C57BL/6 black mice
Experimental: C57BL/6 black mice with body weight of about 18˜20 g, aged 4˜6 weeks were used in the experiment. The mice were weighed and equally grouped based on body weight, then 1×10^6 B16 melanoma cells were subcutaneously injected. After one week, when the size of the tumors was 30˜50 mm^3, the drug-loaded nanoparticles and free DOX were injected into the mice through tail veins at Day 0, 2, 4, 6, and 8, where the amount of DOX in drug-carrying nanoparticles was 10, 20, 30 mg/kg, […] From Day 0 to 15, the body weight of the mice in each group was weighed every day. The size of the tumor was precisely measured with Vernier scale, where the method for calculating the volume of tumors was: V=(L×W×H)/2, (where L was the length of the tumor, W was the width of the tumor, H was the thickness of the tumor). The survival of the mice was observed continuously till the 46th day.
FIG. 11 is a curve graph showing that the doxorubicin-loaded polymer PEG5k-b-PCDC2.8k crosslinked nanoparticles inhibit tumor growth on melanoma-bearing mice; FIG. 12 is a curve graph showing the change of body weight of the mice. FIG. 13 is a curve graph showing the survival of the mice.

COc1cccc2c1C(=O)c1c(O)c3c(c(O)c1C2=O)C[C@@](O)(C(=O)CO)C[C@@H]3O[C@H]1C[C@H](N)[C@H](O)[C@H](C)O1 [free DOX, doxorubicin]
body weight decrease (DOX group, in 7 days): 23%
day of treatment on which all mice died (DOX group, printed as 30 mg/kg): 10 days
toxic side effects on the mice (free DOX group): severe toxic side effect
